# Measured values taken from PubChem BioAssay AID1845212 (Molecular Pharmacology Branch, DTP, NCI, 2023).
# pIC50: −log10 of the molar value.
# Tested on: NCI-H719 tumor spheroids, viability
# Assay: Anticancer human tumor NCI-H719 cell line growth inhibition;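 also: spheroids exposed to compounds for seven days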;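 as to viability, T/C: percent viability relative to DMSO vehicle control as 100%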
# Conditions: spheroids with HUVEC and MSC; for pIC50: curve of first compound; for viability, T/C: stronger effect = lower value
# From the text: Multicellular complex tumor spheroid response to DNA repair inhibitors in combination with DNA-damaging drugs
# This study explores the anticancer activities of DNA-damaging drugs and inhibitors of DNA damage repair, both as single agents and in combinations. Complex tumor spheroids comprised of malignant cells, endothelial cells and mesenchymal stem cells served as an in vitro model for human solid tumors. This model system incorporates physiologically relevant features and patient-derived or established malignant cell lines with clinically relevant genetic alterations from many tumor types. Twenty-six patient-derived or established malignant cell lines were evaluated representing sarcoma, melanoma, small cell lung cancer (SCLC), non-small cell lung cancer (NSCLC), as well as bladder, ovarian and pancreatic cancers. The concentration ranges selected for each drug and investigational agent were based upon clinically achievable concentrations if the clinical Cmax of the agent was known.
# Compounds. The drugs and compounds olaparib (NSC753686), talazoparib (NSC767125), berzosertib (NSC777718), elimusertib (NSC800525), nedisertib (NSC802822), VX-984 (NSC792969), AZD-1390 (NSC803789), temozolomide (NSC362856), topotecan (NSC609699), trabectedin (NSC813783), staurosporine (NSC755774), and gemcitabine (NSC613327) were obtained from the National Cancer Institute (NCI) Developmental Therapeutics Program Chemical Repository. The FDA-approved anticancer drug set is available from the Developmental Therapeutics Program at https://dtp.cancer.gov/organization/dscb/obtaining/available_plates.htm. […] The stock solutions were prepared in dimethyl sulfoxide (DMSO, Sigma-Aldrich, St. Louis, MO, cat. D2650) at 400-fold the tested concentration and stored at -70 degrees C. Prior to their use, the stock solutions were diluted in fresh medium and the final DMSO concentration in the assay was 0.25% (v/v). All drugs and investigational agents were tested over a range starting from a high concentration at or near the clinical Cmax and decreasing in half-log increments. If the clinical Cmax for an agent had not been determined, the highest concentration tested was 10 microM.
# Cell Lines. The patient-derived cancer cell (PDC) lines: 156681-154-R-J1-PDC, 283228-195-R-J1-PDC, 287954-098-R-J1-PDC, 292921-168-R-J2-PDC, 349418-098-R-PDC, 425362-245-T-J1-PDC, 556581-035-R-J1-PDC, and BL0293-F563-PDC were received from the NCI Patient-Derived Models Repository (PDMR, https://pdmr.cancer.gov). The established cell lines HS-SY-2 (RRID:CVCL_8719), MPNST, and SYO-1 (RRID:CVCL_7146) were obtained from the Sloan Kettering Institute. The alveolar soft parts sarcoma cell line ASPS-1 (RRID:CVCL_S738) was established at the NCI and grown from internal seed stocks. The following established cell lines were purchased from the American Type Culture Collection (ATCC, Manassas, VA): G-401 (ATCC, cat. CRL-1441, RRID:CVCL_0270), SW982 (ATCC, cat. HTB-93, RRID:CVCL_1734), VA-ES-BJ (ATCC, cat. CRL-2138, RRID:CVCL_1785), NCI-H719 (ATCC, cat. CRL-5837, RRID:CVCL_1582), NCI-H196 (ATCC, cat. CRL-5823, RRID:CVCL_1509), NCI-H841 (ATCC, cat. CRL-5845, RRID:CVCL_1595), NCI-H1618 (ATCC, cat. CRL-5879, RRID:CVCL_1480), NCI-H1876 (ATCC, cat. CRL-5902, RRID:CVCL_1503), DMS 114 (ATCC, cat. CRL-2066; RRID:CVCL_1174), NCI-H211 (ATCC, cat. CRL-5824; RRID:CVCL_1529), and SW 1271 (ATCC, cat. CRL-2177, RRID:CVCL_1716). The small cell lung cancer cell line COR-L88 was purchased from Sigma-Aldrich (cat. 92031917-1VL, RRID:CVCL_1141). The non-small cell lung cancer cell lines NCI-H226 (RRID:CVCL_1544) and NCI-H322M (RRID:CVCL_1557) were established at the NCI and grown from internal seed stocks. Pooled donor human umbilical vein endothelial cells (HUVEC, Lonza, cat. CC-2519) and human mesenchymal stem cells (hMSC, Lonza, cat. PT-2501) were purchased from Lonza (Walkersville, MD).
# Cell Culture. All cells were maintained in an incubator at 37 degrees C and 5% CO2 with 95% humidity. […]
# [1] = second compound 0.003 µM, first compound 0.00949 µM
# [2] = second compound 0.003 µM, first compound 0.03 µM
# [3] = second compound 0.003 µM, first compound 0.0949 µM
# [4] = second compound 0.003 µM, first compound 0.3 µM
# [5] = second compound 0.003 µM, first compound 0.949 µM
# [6] = second compound 0.003 µM, first compound 3 µM
# [7] = second compound 0.00949 µM, first compound 0.00949 µM
# [8] = second compound 0.00949 µM, first compound 0.03 µM
# [9] = second compound 0.00949 µM, first compound 0.0949 µM
# [10] = second compound 0.00949 µM, first compound 0.3 µM
# [11] = second compound 0.00949 µM, first compound 0.949 µM
# [12] = second compound 0.00949 µM, first compound 3 µM
# [13] = second compound 0.03 µM, first compound 0.00949 µM
# [14] = second compound 0.03 µM, first compound 0.03 µM
# [15] = second compound 0.03 µM, first compound 0.0949 µM
# [16] = second compound 0.03 µM, first compound 0.3 µM
# [17] = second compound 0.03 µM, first compound 0.949 µM
# [18] = second compound 0.03 µM, first compound 3 µM
# [19] = second compound 0.0949 µM, first compound 0.00949 µM
# [20] = second compound 0.0949 µM, first compound 0.03 µM
# [21] = second compound 0.0949 µM, first compound 0.0949 µM
# [22] = second compound 0.0949 µM, first compound 0.3 µM
# [23] = second compound 0.0949 µM, first compound 0.949 µM
# [24] = second compound 0.0949 µM, first compound 3 µM
# [25] = second compound 0.3 µM, first compound 0.00949 µM
# [26] = second compound 0.3 µM, first compound 0.03 µM
# [27] = second compound 0.3 µM, first compound 0.0949 µM
# [28] = second compound 0.3 µM, first compound 0.3 µM
# [29] = second compound 0.3 µM, first compound 0.949 µM
# [30] = second compound 0.3 µM, first compound 3 µM
SMILES,pIC50 (second compound 0.003 µM),pIC50 (second compound 0.00949 µM),pIC50 (second compound 0.03 µM),pIC50 (second compound 0.0949 µM),pIC50 (second compound 0.3 µM),"viability, T/C [3] [%]","viability, T/C [4] [%]","viability, T/C [5] [%]","viability, T/C [6] [%]","viability, T/C [9] [%]","viability, T/C [10] [%]","viability, T/C [11] [%]","viability, T/C [12] [%]","viability, T/C [15] [%]","viability, T/C [16] [%]","viability, T/C [17] [%]","viability, T/C [18] [%]","viability, T/C [21] [%]","viability, T/C [22] [%]","viability, T/C [23] [%]",also measured
CNCc1ccc(-c2cc(-c3nc(-c4ccc(S(=O)(=O)C(C)C)cc4)cnc3N)on2)cc1 + CC[C@@]1(O)C(=O)OCc2c1cc1n(c2=O)Cc2cc3c(CN(C)C)c(O)ccc3nc2-1,7.95,> 8.02,> 8.02,> 8.02,> 8.02,15.8,7.57,6.32,0.12,6.36,7.36,7.1,0.13,6.09,8.62,7.57,0.1,7.1,8.34,8.45,"viability, T/C [1]: 51%; viability, T/C [2]: 42.9%; viability, T/C [7]: 12.4%; viability, T/C [8]: 6.06%; viability, T/C [13]: 5.87%; viability, T/C [14]: 9.07%; viability, T/C [19]: 5.51%; viability, T/C [20]: 6.14%; viability, T/C [24]: 0.11%; viability, T/C [25]: 6.1%; viability, T/C [26]: 6.24%; viability, T/C [27]: 7.61%; viability, T/C [28]: 8.16%; viability, T/C [29]: 6.89%; viability, T/C [30]: 0.15%"
Cn1ncnc1[C@H]1c2n[nH]c(=O)c3cc(F)cc(c23)N[C@@H]1c1ccc(F)cc1 + CC[C@@]1(O)C(=O)OCc2c1cc1n(c2=O)Cc2cc3c(CN(C)C)c(O)ccc3nc2-1,> 8.02,> 8.02,> 8.02,> 8.02,> 8.02,5.99,5.19,4.99,5.85,5.47,5.57,5.5,6.37,4.9,5.13,5.61,6.6,6.09,5.95,5.66,"viability, T/C [1]: 5.32%; viability, T/C [2]: 5.79%; viability, T/C [7]: 5.81%; viability, T/C [8]: 5.54%; viability, T/C [13]: 5.15%; viability, T/C [14]: 5.23%; viability, T/C [19]: 5.2%; viability, T/C [20]: 5.29%; viability, T/C [24]: 7.03%; viability, T/C [25]: 5.56%; viability, T/C [26]: 5.67%; viability, T/C [27]: 5.84%; viability, T/C [28]: 5.89%; viability, T/C [29]: 6.04%; viability, T/C [30]: 5.47%"
O=C(c1cc(Cc2n[nH]c(=O)c3ccccc23)ccc1F)N1CCN(C(=O)C2CC2)CC1 + CC[C@@]1(O)C(=O)OCc2c1cc1n(c2=O)Cc2cc3c(CN(C)C)c(O)ccc3nc2-1,> 7.02,> 7.02,> 7.02,> 7.02,> 7.02,8.96,7.42,6.71,6.81,6.26,5.9,6.11,5.87,5.59,5.66,6.11,5.5,5.78,5.76,5.69,"viability, T/C (second compound 0.003 µM, first compound 9.49 µM): 5.81%; viability, T/C (second compound 0.003 µM, first compound 30 µM): 4.97%; viability, T/C (second compound 0.00949 µM, first compound 9.49 µM): 5.83%; viability, T/C (second compound 0.00949 µM, first compound 30 µM): 5.35%; viability, T/C (second compound 0.03 µM, first compound 9.49 µM): 5.9%; viability, T/C (second compound 0.03 µM, first compound 30 µM): 5.66%; viability, T/C [24]: 5.69%; viability, T/C (second compound 0.0949 µM, first compound 9.49 µM): 5.97%; viability, T/C (second compound 0.0949 µM, first compound 30 µM): 5.61%; viability, T/C [27]: 5.43%; viability, T/C [28]: 5.79%; viability, T/C [29]: 6.36%; viability, T/C [30]: 5.43%; viability, T/C (second compound 0.3 µM, first compound 9.49 µM): 5.25%; viability, T/C (second compound 0.3 µM, first compound 30 µM): 4.62%"
